Results reported in US7713937B2, “Synthetic peptide amides and dimeric forms thereof” (Cara Therapeutics, Inc., priority 2006, dated 2010).
Where “and” joins values, the source holds several entries; their conditions need not be identical. Equal entries are not always repeated. Square brackets hold non-standard residues; d marks the D form. Peptide text beside a SMILES is read from it. * marks the point of attachment. Piperidinyl(4-(1-Pro-OH)) = O=C(O)[C@@H]1CCCN1C1CCN(*)CC1; d(hArg) = N=C(N)NCCCC[C@@H](N)C(=O)O

Tests used:
[1] = biological target: T1, mouse kappa opioid receptor (mKOR) (Mus musculus, UniProt P33534); assay: cell-based; conditions: for Emax: read-out: mKOR Efficacy(%)
T1 construct: Stimulation of Endogenous Mouse Kappa-Opioid Receptor in R1.G1 Cells; host or cells: R1.G1 mouse thymoma cells

[2] = biological target: T2, human kappa opioid receptor (hKOR) (Homo sapiens, UniProt P41145); assay: cell-based; conditions: for Emax: HEK293, read-out: hKOR Efficacy(%)
T2 construct: expressed in transfected cells; host or cells: HEK-293 cells, transient transfection with Fugene6

ICR mice = assay: Acetic acid-induced writhing assay in mice; format: in vivo, mouse; conditions: for ED50 (mg/kg, iv, 15 min post-dose): mice
[3] = test system: albino New Zealand strain rabbits; assay: Capsaicin-induced ocular pain, palpebral opening; format: in vivo, rabbit; conditions: Table VI, 10 mg/ml instilled, 10-30 min. post capsaicin, five animals
[4] = Pharmacokinetics in cynomolgus monkeys, plasma half life; conditions: male, cynomolgus monkey, iv
human mu opioid receptor = biological target: T3, human mu opioid receptor (Homo sapiens, UniProt P35372); assay: Similar assay for potency on the human mu opioid receptor; format: cell-based
T3 construct: expressed in transfected cells
Experimental: Synthetic peptide amides of the invention were tested in a similar assay for potency on the human mu opioid receptor.
The synthetic peptide amide (53) was tested in a similar assay for potency on the human mu opioid receptor.

CYP2C19 = CYP2C19 (Homo sapiens, UniProt P33261); assay: Cytochrome P450 CYP2C19 inhibition in human liver microsomes; conditions: percent remaining CYP activity, 10 μM test compound, (54) in Expt 1 and Expt 2
CYP2C9 = CYP2C9 (Homo sapiens, UniProt P11712); assay: Cytochrome P450 CYP2C9 inhibition in human liver microsomes; conditions: percent remaining CYP activity, 10 μM test compound, (54) in Expt 1 and Expt 2
CYP2D6 = CYP2D6 (Homo sapiens, UniProt P10635); assay: Cytochrome P450 CYP2D6 inhibition in human liver microsomes; conditions: percent remaining CYP activity, 10 μM test compound, (54) in Expt 1 and Expt 2
CYP1A = assay: Cytochrome P450 CYP1A inhibition in human liver microsomes; format: in vitro ADME; conditions: percent remaining CYP activity, 10 μM test compound, (54) in Expt 1 and Expt 2
Experimental: Inhibition of cytochrome P450 oxidase isozymes CYP1A, CYP2C9, CYP2C19, CYP2D6 and CYP3A4 by synthetic peptide amide compounds of the invention was determined according to the following methods performed by Cerep (Seattle, Wash.):
In the cytochrome P450 CYP1A assay, human liver microsomes (0.2 mg/ml protein) were incubated for 15 minutes at 37° C. with 10 μM test compound, 1 μM ethoxyresorufin, 1.3 mM NADP, 3.3 mM glucose-6-phosphate and 0.4 U/ml glucose-6-phosphate dehydrogenase. In the absence of test compound, the ethoxyresorufin added as substrate is oxidized to resorufin, and in the presence of an inhibitor of the CYP isozyme, the amount of resorufin produced is reduced. Furafylline was used as a reference inhibitor.
In each assay, the percent inhibition of the cytochrome P450 CYP P450 isozyme was determined as one hundred times the ratio of (1-minus the amount of product in the sample in the presence of the test compound) divided by the amount of product in the sample containing untreated isozyme.

CYP3A4 = CYP3A4 (Homo sapiens, UniProt P08684); assay: Cytochrome P450 CYP3A4 inhibition in human liver microsomes (midazolam); conditions: percent remaining CYP activity, 10 μM test compound, (54) in Expt 1 and Expt 2
[5] = Inhibition of locomotion in mice (locomotion reduction assay, sedation); conditions: mouse, in vivo, sc, subcutaneous, sedative effect
Experimental: To determine the potential sedative effect of test compounds, the extent of locomotion after the administration of the test compound or vehicle control can be determined and compared with a specialized apparatus designed for this purpose (Opto-Varimex Activity Meter). At the start of each experiment, each mouse was weighed and examined to determine good health. […] The subcutaneous injection was performed in the back of the neck of the mouse, pinched in a “tent” to allow proper access for the syringe needle. After injection, each animal was placed individually in Plexiglas boxes (43 cm×43 cm) inside the Opto-Varimex Activity Meter apparatus. Before the animal was placed in the apparatus, a thin layer of SANI-CHIPS rodent bedding was placed on the bottom of the Plexiglas box to provide a comfortable environment. Each Opto-Varimex Activity Meter apparatus was then turned on and data acquisition begun by the ATM3 Auto-Track System. The data were processed and results expressed in the same way as described for the writhing assay data above.

[6] = Caco-2 (TC7 subclone) membrane permeability, apical-to-basolateral; conditions: human

T2 sequence (P41145 whole entry): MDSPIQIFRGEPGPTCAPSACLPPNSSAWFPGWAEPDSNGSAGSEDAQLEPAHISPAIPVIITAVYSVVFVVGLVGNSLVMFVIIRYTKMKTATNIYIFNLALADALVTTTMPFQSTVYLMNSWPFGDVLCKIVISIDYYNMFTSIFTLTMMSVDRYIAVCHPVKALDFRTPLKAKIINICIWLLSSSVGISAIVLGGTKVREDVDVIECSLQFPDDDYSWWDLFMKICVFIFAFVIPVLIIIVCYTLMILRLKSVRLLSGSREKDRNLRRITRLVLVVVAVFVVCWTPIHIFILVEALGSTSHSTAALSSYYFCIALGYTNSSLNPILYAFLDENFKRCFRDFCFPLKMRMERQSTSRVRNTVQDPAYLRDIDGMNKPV
T1 sequence (P33534 whole entry): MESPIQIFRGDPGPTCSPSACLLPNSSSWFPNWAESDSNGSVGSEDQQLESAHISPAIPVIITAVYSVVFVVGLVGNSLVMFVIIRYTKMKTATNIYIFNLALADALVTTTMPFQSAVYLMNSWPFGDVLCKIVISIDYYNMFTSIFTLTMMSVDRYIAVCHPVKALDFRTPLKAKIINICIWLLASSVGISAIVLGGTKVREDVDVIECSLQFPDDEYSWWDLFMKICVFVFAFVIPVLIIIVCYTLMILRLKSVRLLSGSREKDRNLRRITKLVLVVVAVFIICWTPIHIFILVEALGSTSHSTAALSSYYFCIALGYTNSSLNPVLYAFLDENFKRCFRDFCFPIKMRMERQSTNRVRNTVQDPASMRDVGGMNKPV
Chain of CYP3A4 (P08684 whole entry): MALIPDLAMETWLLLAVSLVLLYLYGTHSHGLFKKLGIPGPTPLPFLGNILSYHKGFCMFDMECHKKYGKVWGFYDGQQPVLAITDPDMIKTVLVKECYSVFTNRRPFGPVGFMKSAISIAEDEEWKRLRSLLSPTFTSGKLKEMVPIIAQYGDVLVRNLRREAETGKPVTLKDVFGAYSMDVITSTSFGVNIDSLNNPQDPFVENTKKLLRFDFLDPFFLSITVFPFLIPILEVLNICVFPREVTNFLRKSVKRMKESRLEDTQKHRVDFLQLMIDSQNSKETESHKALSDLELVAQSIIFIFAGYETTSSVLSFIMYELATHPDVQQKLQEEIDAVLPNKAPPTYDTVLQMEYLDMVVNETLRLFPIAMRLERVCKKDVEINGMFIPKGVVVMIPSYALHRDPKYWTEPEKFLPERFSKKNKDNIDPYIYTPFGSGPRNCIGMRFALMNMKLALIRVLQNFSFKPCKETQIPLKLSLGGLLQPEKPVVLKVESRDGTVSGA
Chain of CYP2C19 (P33261 whole entry): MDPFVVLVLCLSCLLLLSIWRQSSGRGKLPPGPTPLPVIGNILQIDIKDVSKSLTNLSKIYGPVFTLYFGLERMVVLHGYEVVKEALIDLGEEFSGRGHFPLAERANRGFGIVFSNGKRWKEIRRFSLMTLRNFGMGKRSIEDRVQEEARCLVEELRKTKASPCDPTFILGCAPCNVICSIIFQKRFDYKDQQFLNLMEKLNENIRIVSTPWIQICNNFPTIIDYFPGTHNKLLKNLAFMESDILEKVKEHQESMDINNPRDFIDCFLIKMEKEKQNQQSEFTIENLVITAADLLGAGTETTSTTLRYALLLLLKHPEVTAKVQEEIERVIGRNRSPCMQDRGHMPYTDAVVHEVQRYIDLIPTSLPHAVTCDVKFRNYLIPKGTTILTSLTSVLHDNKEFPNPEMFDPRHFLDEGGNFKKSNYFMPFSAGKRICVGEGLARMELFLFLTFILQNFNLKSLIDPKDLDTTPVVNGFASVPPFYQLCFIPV
Chain of CYP2C9 (P11712 whole entry): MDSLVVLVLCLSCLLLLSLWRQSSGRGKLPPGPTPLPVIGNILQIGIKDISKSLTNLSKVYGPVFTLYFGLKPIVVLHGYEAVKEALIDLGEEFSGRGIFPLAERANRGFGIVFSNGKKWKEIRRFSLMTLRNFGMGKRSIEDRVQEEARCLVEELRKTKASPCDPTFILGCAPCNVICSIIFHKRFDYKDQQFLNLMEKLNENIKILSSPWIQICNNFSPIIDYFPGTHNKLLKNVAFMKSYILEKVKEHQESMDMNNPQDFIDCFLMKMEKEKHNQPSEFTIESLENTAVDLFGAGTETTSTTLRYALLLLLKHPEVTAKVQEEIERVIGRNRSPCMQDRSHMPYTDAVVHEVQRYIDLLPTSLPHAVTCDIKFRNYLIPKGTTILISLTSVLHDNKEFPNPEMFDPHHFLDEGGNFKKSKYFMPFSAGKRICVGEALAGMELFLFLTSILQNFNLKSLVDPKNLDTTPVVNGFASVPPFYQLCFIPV
Chain of CYP2D6 (P10635 whole entry): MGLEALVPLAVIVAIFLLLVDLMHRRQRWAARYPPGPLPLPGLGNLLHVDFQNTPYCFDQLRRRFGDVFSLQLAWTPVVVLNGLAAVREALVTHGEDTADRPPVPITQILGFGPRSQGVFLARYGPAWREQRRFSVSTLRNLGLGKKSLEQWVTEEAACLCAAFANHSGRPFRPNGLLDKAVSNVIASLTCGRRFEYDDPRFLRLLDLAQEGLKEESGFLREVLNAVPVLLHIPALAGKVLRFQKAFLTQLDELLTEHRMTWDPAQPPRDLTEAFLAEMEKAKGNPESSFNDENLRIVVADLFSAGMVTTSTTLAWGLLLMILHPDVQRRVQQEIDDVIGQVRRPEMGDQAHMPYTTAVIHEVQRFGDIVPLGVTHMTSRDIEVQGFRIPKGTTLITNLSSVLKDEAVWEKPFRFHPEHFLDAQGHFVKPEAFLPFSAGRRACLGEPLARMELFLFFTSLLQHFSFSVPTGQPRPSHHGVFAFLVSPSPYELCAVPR
T3 sequence (P35372 whole entry): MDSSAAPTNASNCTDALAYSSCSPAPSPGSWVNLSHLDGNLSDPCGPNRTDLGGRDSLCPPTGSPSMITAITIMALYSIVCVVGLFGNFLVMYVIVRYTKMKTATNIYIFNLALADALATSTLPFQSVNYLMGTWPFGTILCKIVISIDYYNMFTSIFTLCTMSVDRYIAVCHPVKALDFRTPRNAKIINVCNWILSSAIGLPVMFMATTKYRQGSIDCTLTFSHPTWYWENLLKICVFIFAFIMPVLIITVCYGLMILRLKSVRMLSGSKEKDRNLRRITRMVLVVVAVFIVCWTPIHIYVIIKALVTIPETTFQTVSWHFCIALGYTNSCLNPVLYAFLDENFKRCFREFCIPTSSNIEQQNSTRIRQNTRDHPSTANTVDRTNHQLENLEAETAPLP

Compound	EC50 [1]	Emax [1]	EC50 [2]	Emax [2]	other results
CC(C)C[C@@H](NC(=O)[C@@H](Cc1ccccc1)NC(=O)[C@H](N)Cc1ccccc1)C(=O)N[C@H](CCCCN)C(=O)N1CCC(N)(C(=O)O)CC1 [Compound (2), D-Phe-D-Phe-D-Leu-D-Lys-[ω(4-aminopiperidine-4-carboxylic acid)]-OH]	0.048 nM	96%	0.16 nM	99%	ED50 (mg/kg, iv, 15 min post-dose) (ICR mice; iv): 0.07 mg/kg; % MPE (240 min post-ED90) (ICR mice; iv, 240 min post-ED90): 81 ± 4%; % MPE (300 min post-ED90) (ICR mice; iv, 300 min post-ED90): 84 ± 4%
CC(C)C[C@@H](NC(=O)[C@@H](Cc1ccccc1)NC(=O)[C@H](N)Cc1ccccc1)C(=O)N[C@H](CCCCN)C(=O)N1CCC(N2CCC[C@H]2C(=O)O)CC1 [Compound (4), D-Phe-D-Phe-D-Leu-D-Lys-[N-(4-piperidinyl)-L-proline]-OH]	0.075 nM	94%	0.15 nM	92%	Mean (% Control) palpebral opening [3]: 56.7 % Control
CC(C)C[C@@H](NC(=O)[C@@H](Cc1ccccc1)NC(=O)[C@H](N)Cc1ccccc1)C(=O)N[C@H](CCCCNC(=N)N)C(=O)N1CCC(N2CCC[C@H]2C(=O)O)CC1 [Compound (5), D-Phe-D-Phe-D-Leu-D-Har-[N-(4-piperidinyl)-L-proline]-OH] (H-[dF][dF][dL][d(hArg)]-{Piperidinyl(4-(1-Pro-OH))})	0.034 nM	89%	0.17 nM	98%	ED50 (mg/kg, iv, 15 min post-dose) (ICR mice; iv): 0.01 mg/kg; % MPE (180 min post-ED90) (ICR mice; iv, 180 min post-ED90): 54 ± 10%
C/N=C(/N)N1CCCN(C(=O)[C@@H](CCCN)NC(=O)[C@@H](CC(C)C)NC(=O)[C@@H](Cc2ccccc2)NC(=O)[C@H](N)Cc2ccccc2)CC1 [Compound (52), D-Phe-D-Phe-D-Leu-D-Orn-[4-(N-methyl)amidino-homopiperazine amide]]	0.035 nM	101%	0.18 nM	96%	half-life [4]: 1.15 h
CC(C)C[C@@H](NC(=O)[C@@H](Cc1ccccc1)NC(=O)[C@H](N)Cc1ccccc1)C(=O)N[C@H](CCCN)C(=O)N1CCCN(C(=N)N)CC1 [Compound (53), D-Phe-D-Phe-D-Leu-D-Orn-[4-amidinohomopiperazine amide]]	0.03 nM	–	0.15 nM	103%	EC50 (human mu opioid receptor): ≥ 1000 nM
CC(C)C[C@@H](NC(=O)[C@@H](Cc1ccccc1)NC(=O)[C@H](N)Cc1ccccc1)C(=O)N[C@H](CCCN)C(=O)N1CCCN(C2=NCCN2)CC1 [Compound (54), D-Phe-D-Phe-D-Leu-D-Orn-[4-(4,5-dihydro-1H-imidazol-2-yl)homopiperazine amide]]	0.056 nM	99%	0.13 nM	90%	Percent Activity of Cytochrome P450 CYP2C19 (CYP2C19): 94.1% and 97.8%; Percent Activity of Cytochrome P450 CYP2C9 (CYP2C9): 99.2% and 98.2%; Percent Activity of Cytochrome P450 CYP2D6 (CYP2D6): 98.4% and 98.2%; ED50 in the acetic acid-induced writhing assay (ICR mice; subcutaneous, ICR mice): 0.074 mg/kg; Percent Activity of Cytochrome P450 CYP1A (CYP1A): 97.1% and 95.8%; Percent Activity of Cytochrome P450 CYP3A4 (CYP3A4): 94.7% and 95.9%; ED50 [5]: 3.17 mg/kg
CNC(=C[N+](=O)[O-])NCCSCc1ccc(CN(C)C)o1 [Ranitidine, ranitidine]	–	–	–	–	Papp A→B at 60 min, 10 μM [6]: 0.5 ×10⁻⁶ cm/s
